Activity calls are given as the source filed them. The rule behind the calls is not given here.
Assays:
[1] = system: Echinochloa crus-galli; test: Herbicidal activity against Echinochloa crus-galli (barnyard grass) by pot assay; type: functional
[2] = Inhibition of very long chain fatty acid elongase in Allium ampeloprasum microsome using C18:0 as substrate and [14C]-malonate after 10 to 20 min by liquid scintillation counting; type: microsomes; conditions: read-out: I50
[3] = system: Allium ampeloprasum; test: Inhibition of very long chain fatty acid elongase in Allium ampeloprasum microsome using C18:0 as substrate and [14C]-malonate at 1 x 10^-6 M after 10 to 20 min by liquid scintillation counting; type: microsomes
[4] = system: Allium ampeloprasum; test: Inhibition of very long chain fatty acid elongase in Allium ampeloprasum microsome using C18:0 as substrate and [14C]-malonate at 1 x 10^-5 M after 10 to 20 min by liquid scintillation counting; type: microsomes
[5] = system: Allium ampeloprasum; test: Inhibition of very long chain fatty acid elongase in Allium ampeloprasum microsome using C20:0 as substrate and [14C]-malonate at 1 x 10^-7 M after 10 to 20 min by liquid scintillation counting; type: microsomes
[6] = system: Allium ampeloprasum; test: Inhibition of very long chain fatty acid elongase in Allium ampeloprasum microsome using C20:0 as substrate and [14C]-malonate at 1 x 10^-4 M after 10 to 20 min by liquid scintillation counting; type: microsomes
[7] = system: Allium ampeloprasum; test: Inhibition of very long chain fatty acid elongase in Allium ampeloprasum microsome using C18:0 as substrate and [14C]-malonate at 1 x 10^-4 M after 10 to 20 min by liquid scintillation counting; type: microsomes
[8] = system: Allium ampeloprasum; test: Inhibition of very long chain fatty acid elongase in Allium ampeloprasum microsome using C20:0 as substrate and [14C]-malonate at 1 x 10^-6 M after 10 to 20 min by liquid scintillation counting; type: microsomes
[9] = system: Allium ampeloprasum; test: Inhibition of very long chain fatty acid elongase in Allium ampeloprasum microsome using C20:0 as substrate and [14C]-malonate at 1 x 10^-5 M after 10 to 20 min by liquid scintillation counting; type: microsomes
[10] = Inhibition of very long chain fatty acid elongase in Allium ampeloprasum microsome using C20:0 as substrate and [14C]-malonate after 10 to 20 min by liquid scintillation counting; type: microsomes; conditions: read-out: I50
[11] = system: Allium ampeloprasum; test: Inhibition of very long chain fatty acid elongase in Allium ampeloprasum microsome using C18:0 as substrate and [14C]-malonate at 3 x 10^-9 M after 10 to 20 min by liquid scintillation counting; type: microsomes
[12] = system: Allium ampeloprasum; test: Inhibition of very long chain fatty acid elongase in Allium ampeloprasum microsome using C20:0 as substrate and [14C]-malonate at 1 x 10^-8 M after 10 to 20 min by liquid scintillation counting; type: microsomes
[13] = system: Allium ampeloprasum; test: Inhibition of very long chain fatty acid elongase in Allium ampeloprasum microsome using [14C]-malonate assessed per vial at 0.1 uM after 10 to 20 min by liquid scintillation counting; type: microsomes
[14] = system: Allium ampeloprasum; test: Inhibition of very long chain fatty acid elongase in Allium ampeloprasum microsome using C20:0 as substrate and [14C]-malonate at 3 x 10^-8 M after 10 to 20 min by liquid scintillation counting; type: microsomes
[15] = system: Allium ampeloprasum; test: Inhibition of very long chain fatty acid elongase-mediated elongation to arachidic acid in Allium ampeloprasum microsome using [14C]-malonate after 10 to 20 min by liquid scintillation counting; type: microsomes
[16] = system: Allium ampeloprasum; test: Inhibition of very long chain fatty acid elongase in Allium ampeloprasum microsome using C18:0 as substrate and [14C]-malonate at 1 x 10^-8 M after 10 to 20 min by liquid scintillation counting; type: microsomes
[17] = system: Allium ampeloprasum; test: Inhibition of very long chain fatty acid elongase in Allium ampeloprasum microsome using C20:0 as substrate and [14C]-malonate at 3 x 10^-9 M after 10 to 20 min by liquid scintillation counting; type: microsomes
[18] = system: Allium ampeloprasum; test: Inhibition of very long chain fatty acid elongase in Allium ampeloprasum microsome using C18:0 as substrate and [14C]-malonate at 1 x 10^-7 M after 10 to 20 min by liquid scintillation counting; type: microsomes
[19] = system: Allium ampeloprasum; test: Inhibition of very long chain fatty acid elongase in Allium ampeloprasum microsome using C18:0 as substrate and [14C]-malonate at 3 x 10^-8 M after 10 to 20 min by liquid scintillation counting; type: microsomes
[20] = system: Allium ampeloprasum; test: Competitive inhibition of very long chain fatty acid elongase in Allium ampeloprasum microsome using C18:0-CoA as substrate after 10 min by Lineweaver-Burk plot analysis; type: microsomes

CCC1(C[C@@]2(c3cccc(Cl)c3)CO2)C(=O)c2ccccc2C1=O [(R)-INDANOFAN]
ED50 [1]: inactive
IC50 [2]: > 1000 µM
inhibition (INH) [3]: 14%
inhibition (INH) [4]: 23%
inhibition (INH) [5]: 9%
inhibition (INH) [6]: 38%
inhibition (INH) [7]: 25%
inhibition (INH) [8]: 18%
inhibition (INH) [9]: 27%
IC50 [10]: > 1000 µM

CCC1(CC2(c3cccc(Cl)c3)CO2)C(=O)c2ccccc2C1=O (stereo not drawn) [(RS)-INDANOFAN]
ED50 [1]: 0.0524 KgAi/ha
IC50 [2]: 0.03 µM
inhibition (INH) [11]: 9%
inhibition (INH) [12]: 11%
INH [13]: 3.6 pmol
inhibition (INH) [14]: 31%
inhibition [15]: 86%
inhibition (INH) [16]: 19%
inhibition (INH) [17]: 8%
inhibition (INH) [5]: 60%
inhibition (INH) [18]: 82%
inhibition (INH) [19]: 49%
IC50 [10]: 0.071 µM

CCC1(C[C@]2(c3cccc(Cl)c3)CO2)C(=O)c2ccccc2C1=O [(S)-INDANOFAN]
ED50 [1]: 0.0254 KgAi/ha
IC50 [2]: 0.017 µM
inhibition (INH) [11]: 7%
inhibition (INH) [12]: 31%
inhibition (INH) [14]: 54%
inhibition (INH) [16]: 30%
inhibition (INH) [17]: 15%
inhibition (INH) [5]: 76%
inhibition (INH) [18]: 93%
inhibition [20]: Active
inhibition (INH) [19]: 71%
IC50 [10]: 0.025 µM

— ChEMBL document CHEMBL3046262, “Inhibitory Activity of Indanofan and Its Enantiomers on Biosynthesis of Very-Long-Chain Fatty Acids” (J Pestic Sci, 2005)
